Test results published in patent US7423177B2, “Carboxamide derivatives as therapeutic agents” (TransTech Pharma, Inc., priority 2001, dated 2008).
Structures can show the parent of a compound that is named as a salt. Values belong to the compound of their own block, whether it stands above or below them.

How the values were obtained:
[1] = target: T1, RAGE (sRAGE) binding to β-amyloid (Homo sapiens, UniProt Q15109); test: ELISA assay: inhibition of sRAGE binding to plate-bound β-amyloid; conditions: ligand β-amyloid coated on plate, concentration at which 50% signal has been inhibited
T1 construct: extracellular domain can be isolated by proteolysis of RAGE to generate soluble RAGE (sRAGE) comprised of the V and C domains
Description: (§1) This method is also described and claimed in co-pending U.S. Ser. No. 09/799,152 filed Mar. 5, 2001.
(§2) S100b, β-amyloid and CML (500 ng/100 μL/well) in 100 mM sodium bicarbonate/sodium carbonate buffer (pH 9.8) is loaded onto the wells of a NUNC Maxisorp flat bottom 96 -well microtitre plate. The plate is incubated at 4° C. overnight. The wells are aspirated and treated with 50 mM imidazole buffer saline (pH 7.2) (with 1 mM CaCl2/MgCl2) containing 1% bovine serum albumin (BSA) (300 μL/well) for two h at 37° C.
(§3) Test compounds are dissolved in nanopure water (concentration: 10-100 μM). DMSO may be used as co-solvent. 25 μL of test compound solution in 2% DMSO is added, along with 75 μL SRAGE (4.0×10^−4 mg/mL FAC) to each well and samples are incubated for 1 h at 37° C. The wells are washed 3 times with 155 mM NaCl pH 7.2 buffer saline and are soaked 10 seconds between each wash.
(§4) Non-Radioactive Binding is Performed by Adding:
(§5) 10 μL Biotinylated goat F(ab′)2 Anti-mouse IgG. (8.0×10^−4 mg/mL, FAC)
(§6) 10 μL Alk-phos-Sterptavidin (3×10^−3 mg/mL FAC)
(§7) 10 μL Polyclonal antibody for sRAGE (FAC 6.0×10^−3 mg/mL)
(§8) to 5 mL 50 mM imidazole buffer saline (pH 7.2) containing 0.2% bovine serum albumin and 1 mM […]. The mixture is incubated for 30 minutes at 37° C. 100 μL complex is added to each well and incubation is allowed to proceed at rt for 1 h. Wells are washed 3 times with wash buffer and soaked 10 s between each wash. 100 μL 1 mg/mL (pNPP) in 1 M diethanolamine (pH adjusted to 9.8 with HCl) is added. Color is allowed to develop in the dark for 1 to 2 h at rt. The reaction is quenched with 10 μL of stop solution (0.5 N NaOH in 50% ethanol) and the absorbance is measured spectrophotometrically with a microplate reader at 405 nm.

[2] = target: T2, RAGE (sRAGE) binding to S100b (Homo sapiens, UniProt Q15109); test: ELISA assay: inhibition of sRAGE binding to plate-bound S100b; conditions: ligand S100b coated on plate, concentration at which 50% signal has been inhibited, read-out: ELISA Assay IC50 (μM) S-100b
T2 construct: extracellular domain can be isolated by proteolysis of RAGE to generate soluble RAGE (sRAGE) comprised of the V and C domains
Description: as §1, §2, §3, §4, §5, §6, §7, §8

[3] = target: T3, RAGE (sRAGE) binding to Carboxymethyl Lysine (CML) (Homo sapiens, UniProt Q15109); test: ELISA assay: inhibition of sRAGE binding to plate-bound CML; conditions: ligand CML coated on plate, concentration at which 50% signal has been inhibited
T3 construct: extracellular domain can be isolated by proteolysis of RAGE to generate soluble RAGE (sRAGE) comprised of the V and C domains
Description: as §1, §2, §3, §4, §5, §6, §7, §8

T2 sequence (Q15109 23-342 limits assumed): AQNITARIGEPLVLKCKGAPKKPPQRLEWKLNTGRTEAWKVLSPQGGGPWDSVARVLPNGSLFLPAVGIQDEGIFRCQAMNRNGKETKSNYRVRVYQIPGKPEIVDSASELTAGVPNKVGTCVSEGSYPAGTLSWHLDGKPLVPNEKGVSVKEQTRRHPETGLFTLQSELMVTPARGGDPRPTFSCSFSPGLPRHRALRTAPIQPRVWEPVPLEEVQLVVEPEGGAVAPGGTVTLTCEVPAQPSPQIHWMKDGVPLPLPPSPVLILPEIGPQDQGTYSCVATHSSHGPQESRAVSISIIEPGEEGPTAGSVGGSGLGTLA
T3 sequence (Q15109 23-342 limits assumed): as above
T1 sequence (Q15109 23-342 limits assumed): as above

Compound: CCN(CC)CCCOc1ccc(NC(=O)CC(NC(=O)OCC2c3ccccc3-c3ccccc32)c2ccc(OC(C)(C)C)cc2)c(OCCCN(CC)CC)c1 (stereo not drawn) [Example 8, 3-(4-Tert-butoxyphenyl)-3-(9-fluorenylmethoxycarbonylamino)propionic Acid 2,4-Di-(3-diethylaminopropoxy)aniline Amide]
IC50 [1]: 0.5 to 1 µM | IC50 [2]: 0.5 to 1 µM | IC50 [3]: 0.5 to 1 µM

Compound: CCN(CC)CCCOc1ccc(NC(=O)CC(N)c2cccc(OC(C)(C)C)c2)c(OCCCN(CC)CC)c1 (stereo not drawn) [Example 3, 3-(3-Tert-butoxyphenyl)-3-aminopropionic Acid 2,4-Di-(3-diethylaminopropoxy)aniline Amide]
IC50 [1]: 1 to 5 µM | IC50 [2]: 1 to 5 µM | IC50 [3]: 1 to 5 µM

Compound: CCCCOc1cc(C(=O)OCCN(CC)CC)ccc1NC(=O)C(N)CC1CCOCC1 (stereo not drawn) [Example 4, 3-(4-Tetrahydropyranyl)-2-aminopropionic Acid 4-Diethylaminoethoxycarbonyl-2-butoxyaniline Amide Dihydrochloride]
IC50 [2]: 10 to 20 µM

Compound: CCCCOc1cc(OCCCN(CC)CC)ccc1NC(=O)C(CC1CCCNC1)NC(=O)OCC1c2ccccc2-c2ccccc21 (stereo not drawn) [Example 30, 3-(Piperidin-3-yl)-2-(9-fluorenylmethoxycarbonylamino)propionic Acid 4-Diethylaminopropoxy-2-butoxyaniline Amide]
IC50 [1]: 0.5 to 1 µM | IC50 [2]: 0.5 to 1 µM | IC50 [3]: 0.5 to 1 µM

Compound: CCCCOc1cc(OCCCN(CC)CC)ccc1NC(=O)C(CC1CCN(C(=O)OC(C)(C)C)CC1)NC(=O)OCC1c2ccccc2-c2ccccc21 (stereo not drawn) [Example 22, 3-(1-Tert-butoxycarbonylpiperidin-4-yl)-2-(9-fluorenylmethoxycarbonylamino)propionic Acid 4-Diethylaminopropoxy-2-butoxyaniline Amide]
IC50 [1]: 0.5 to 1 µM | IC50 [2]: 1 to 5 µM | IC50 [3]: 0.5 to 1 µM

Compound: CCN(CC)CCCOc1ccc(NC(=O)[C@@H]2C[C@@H](OC(C)(C)C)CN2)c(OCCCN(CC)CC)c1 [Example 5, (2S, 4R)-4-Tert-Butoxypyrrolidine-2-carboxylic acid 2,4-Di(3-diethylamino-1-propoxy)aniline Amide]
IC50 [2]: 1 to 5 µM

Compound: CCN(CC)CCCOc1ccc(NC(=O)CC(NC(=O)OCC2c3ccccc3-c3ccccc32)c2ccccc2OC(C)(C)C)c(OCCCN(CC)CC)c1 (stereo not drawn) [Example 10, 3-(9-fluorenylmethoxycarbonylamino)-3-(2-tert-butoxyphenyl)propionic Acid 2,4-Di-(3-diethylaminopropoxy)aniline Amide]
IC50 [1]: 1 to 5 µM | IC50 [2]: 0.5 to 1 µM | IC50 [3]: 1 to 5 µM

Compound: CCCCOc1cc(OCCCN(CC)CC)ccc1NC(=O)C(CC1CCNCC1)NC(=O)OCC1c2ccccc2-c2ccccc21 (stereo not drawn) [Example 23, 3-(Piperidin-4-yl)-2-(9-fluorenylmethoxycarbonylamino)propionic Acid 4-Diethylaminopropoxy-2-butoxyaniline Amide]
IC50 [1]: 0.5 to 1 µM | IC50 [2]: 0.5 to 1 µM | IC50 [3]: 1 to 5 µM

Compound: CCCCOc1cc(OCCCN(CC)CC)ccc1NC(=O)C(CC1CCN(C(=O)OCc2ccccc2)CC1)NC(=O)OCC1c2ccccc2-c2ccccc21 (stereo not drawn) [Example 26, 3-(1 -Benzyloxycarbonylpiperidin-4-yl)-2-(9-fluorenylmethoxycarbonyamino)propionic Acid 4-Diethylaminopropoxy-2-butoxyaniline Amide]
IC50 [1]: 1 to 5 µM | IC50 [2]: 1 to 5 µM | IC50 [3]: 0.5 to 1 µM

Compound: CCN(CC)CCCOc1ccc(NC(=O)CC(N)c2ccccc2OC(C)(C)C)c(OCCCN(CC)CC)c1 (stereo not drawn) [Example 11, 3-amino-3-(2-tert-butoxyphenyl)propionic Acid 2,4-Di-(3-diethylaminopropoxy)aniline Amide]
IC50 [1]: 1 to 5 µM | IC50 [2]: 1 to 5 µM | IC50 [3]: 1 to 5 µM

Compound: CCCCN(C(=O)[C@@H](Cc1ccc(OCc2ccccc2)cc1)NC(=O)OC(C)(C)C)c1ccc(OCCCN(CC)CC)cc1 [Example 18, (2R)-2-tert-butoxycarbonylamino-3-[4-(benzyloxy)phenyl]propionic Acid 4-(3-diethylaminopropoxy)-N-butylaniline Amide]
IC50 [1]: 1 to 5 µM | IC50 [2]: 1 to 5 µM | IC50 [3]: 1 to 5 µM

Compound: CCCCOc1cc(OCCCN(CC)CC)ccc1NC(=O)C(CC1CCN(C(=O)c2ccccc2)CC1)NC(=O)OCC1c2ccccc2-c2ccccc21 (stereo not drawn) [Example 27, 3-(1 -Benzoylpiperidin-4-yl)-2-(9-fluorenylmethoxycarbonylamino)propionic Acid 4-Diethylaminopropoxy-2-butoxyaniline Amide]
IC50 [1]: 1 to 5 µM | IC50 [2]: 1 to 5 µM | IC50 [3]: 1 to 5 µM

Compound: CCN(CC)CCCOc1ccc(NC(=O)CC(NC(C)C)c2cccc(OC(C)(C)C)c2)c(OCCCN(CC)CC)c1 (stereo not drawn) [Example 12, 3-Isopropylamino-3-(3-tert-butoxyphenyl)propionic Acid 2,4-Di-(3-diethylaminopropoxy)aniline Amide]
IC50 [1]: 1 to 5 µM | IC50 [2]: 1 to 5 µM | IC50 [3]: 0.5 to 1 µM

Compound: CCCCOc1cc(C(=O)OCCN(CC)CC)ccc1NC(=O)[C@@H](Cc1ccc(OCc2ccccc2)cc1)n1ccnc1 [Example 7, (R)-3-(4-Benzyloxyphenyl)-2-(1-imidazolyl)propionic Acid 4-Diethylaminoethoxycarbonyl-2-butoxyaniline Amide]
IC50 [1]: 1 to 5 µM | IC50 [2]: 0.5 to 1 µM | IC50 [3]: 1 to 5 µM

Compound: CCCCOc1cc(OCCCN(CC)CC)ccc1NC(=O)C(CC1CCN(Cc2ccccc2)CC1)NC(=O)OCC1c2ccccc2-c2ccccc21 (stereo not drawn) [Example 24, 3-(1-Benzylpiperidin-4-yl)-2-(9-fluorenylmethoxycarbonylamino)propionic Acid 4-Diethylaminopropoxy-2-butoxyaniline Amide]
IC50 [1]: 0.5 to 1 µM | IC50 [2]: 0.5 to 1 µM | IC50 [3]: < 0.5 µM

Compound: CCN(CC)CCCOc1ccc(N(Cc2ccccc2)C(=O)[C@@H](Cc2ccc(OCc3ccccc3)cc2)NC(=O)OC(C)(C)C)cc1 [Example 13, (2R)-2-tert-butoxycarbonylamino-3-[4-(benzyloxy)phenyl]propionic Acid 4-(3-diethylaminopropoxy)-N-benzylaniline Amide]
IC50 [1]: 5 to 10 µM | IC50 [2]: 5 to 10 µM | IC50 [3]: 5 to 10 µM

Compound: (2R)-2-tert-butoxycarbonylamino-3-[4-(benzyloxy)phenyl]propionic Acid 4-(3-diethylaminopropoxy)-N-isopropylaniline Amide [Example 15]
IC50 [1]: 1 to 5 µM | IC50 [2]: 1 to 5 µM | IC50 [3]: 5 to 10 µM

Compound: CCCCOc1cc(OCCCN(CC)CC)ccc1NC(=O)C(N)CC1CCN(Cc2ccccc2)CC1 (stereo not drawn) [Example 25, 3-(1-Benzylpiperidin-4-yl)-2-aminopropionic Acid 4-Diethylaminopropoxy-2-butoxyaniline Amide]
IC50 [1]: 10 to 20 µM | IC50 [2]: 5 to 10 µM | IC50 [3]: 10 to 20 µM

Compound: CCCCOc1cc(C(=O)OCCN(CC)CC)ccc1NC(=O)[C@@H]1Cc2ccccc2CN1 [Example 6, (3S)-1,2,3,4-Tetrahydroisoquinoline-3-carboxylic Acid 4-Diethylaminoethoxycarbonyl-2-butoxyaniline Amide Dihydrochloride]
IC50 [1]: 10 to 20 µM | IC50 [2]: 10 to 20 µM | IC50 [3]: 5 to 10 µM

IC50 [2]: 1 to 5 µM
Compound: CCN(CC)CCCOc1ccc(NC(=O)CCc2ccc(OCc3ccccc3)cc2)c(OCCCN(CC)CC)c1 [Example 1, 3-(4-Benzyloxyphenyl)propionic Acid 2,4-Di-(3-Diethylamino-1-propoxy)aniline Amide]
